Assay results from patent US20060252807A1, “Novel ortho-terphenyl inhibitors of p38 kinase and methods of treating inflammatory disorders” (Kalypsys, Inc., priority 2005, published 2006).

Biological target: T1, active p38 alpha enzyme (Upstate Biotechnology) (Homo sapiens, UniProt Q16539)
T1 construct: purchased Upstate Biotechnology
Experiment: p38α biochemical assay (ATP turnover, luminescent detection, Cambrex PKlight)
Conditions: p38α biochemical assay, Table 1 Biological Activity
Summary of the method: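 p38α + MapkapK2 (whole protein substrate) + 1.4 uM ATP final; Tris/MOPS buffer with MgCl2, CaCl2, EGTA, EDTA, glycerol, β-ME, BSA; 2 h at 30C; luminescent detection of remaining ATP.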

T1 sequence (Q16539 whole entry): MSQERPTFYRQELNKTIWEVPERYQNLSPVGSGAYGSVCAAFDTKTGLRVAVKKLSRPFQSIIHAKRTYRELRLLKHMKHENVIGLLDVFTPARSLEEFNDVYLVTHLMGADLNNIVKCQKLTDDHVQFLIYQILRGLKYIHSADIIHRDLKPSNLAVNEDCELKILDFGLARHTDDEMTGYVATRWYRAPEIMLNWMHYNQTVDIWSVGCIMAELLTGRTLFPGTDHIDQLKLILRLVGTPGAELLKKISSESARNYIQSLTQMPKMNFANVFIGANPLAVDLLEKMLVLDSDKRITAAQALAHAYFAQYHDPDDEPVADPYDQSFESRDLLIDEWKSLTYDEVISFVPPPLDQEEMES

CC(C)NC(=O)c1csc(-c2oc(CN3CCN(C(=O)C(Cc4ccccc4)NC(=O)OC(C)(C)C)CC3)nc2-c2ccc(F)cc2)n1 (centres unmarked) [Example 568] and COc1ccccc1CC(=O)N1CCN(Cc2nc(-c3ccc(F)cc3)c(-c3nc(C(=O)NC(C)C)cs3)o2)CC1 [Example 419] cannot be ordered by IC50: over 1000 nM for the first, at most 1000 nM for the second.

CC(C)NC(=O)c1csc(-c2oc(CNC(=O)C3CCCN3C(=O)OC(C)(C)C)nc2-c2ccc(F)cc2)n1 (centres unmarked) [Example 295] and CC(C)NC(=O)c1csc(-c2oc(CNC(=O)c3ccccc3O)nc2-c2ccc(F)cc2)n1 [Example 125] cannot be ordered by IC50: over 1000 nM for the first, over 1000 nM for the second.

CC(C)NC(=O)c1csc(-c2c(-c3ccc(F)cc3)noc2CNC(=O)COc2ccccc2C=O)n1 [Example 687] and CC(C)NC(=O)c1csc(-c2c(-c3ccc(F)cc3)noc2CNC(=O)c2ccc3ccccc3c2O)n1 [Example 720] cannot be ordered by IC50: over 1000 nM for the first, over 1000 nM for the second.

CCOc1ccc2ccccc2c1C(=O)N1CCN(Cc2nc(-c3ccc(F)cc3)c(-c3nc(C(=O)NC(C)C)cs3)o2)CC1 [Example 534] and CCOc1ccc2ccccc2c1C(=O)NCc1nc(-c2ccc(F)cc2)c(-c2nc(C(=O)NC(C)C)cs2)o1 [Example 297] cannot be ordered by IC50: at most 1000 nM for the first, over 1000 nM for the second.

O=C(O)c1csc(-c2c(-c3ccc(F)cc3)n[nH]c2C2CCNCC2)n1 [Example 70, 2-(3-(4-fluorophenyl)-5-(piperidin-4-yl)-1H-pyrazol-4-yl)thiazole-4-carboxylic acid] and C#CCNC(=O)c1csc(-c2[nH]c(CN3CCNCC3)nc2-c2ccc(F)cc2)n1 [Example 82, 2-|5-(4-Fluoro-phenyl)-2-piperazin-1-ylmethyl-3H-imidazol-4-yl|-thiazole-4-carboxylic acid prop-2-ynylamide] cannot be ordered by IC50: over 1000 nM for the first, at most 1000 nM for the second.

COc1cc(OC)c(C(=O)NCc2nc(-c3ccc(F)cc3)c(-c3nc(C(=O)NC(C)C)cs3)o2)cc1OC [Example 284] and Cc1ccccc1C(=O)NCc1nc(-c2ccc(F)cc2)c(-c2nc(C(=O)NC(C)C)cs2)o1 [Example 122] cannot be ordered by IC50: over 1000 nM for the first, over 1000 nM for the second.

C#CCNC(=O)c1csc(-c2c(-c3ccc(F)cc3)ncn2C2CCN(C(=O)CO)CC2)n1 [Example 94, 2-{5-(4-Fluoro-phenyl)-3-|1-(2-hydroxy-acetyl)-piperidin-4-yl|-3H-imidazol-4-yl}-thiazole-4-carboxylic acid prop-2-ynylamide] and Cc1ccccc1CCC(=O)N1CCN(Cc2nc(-c3ccc(F)cc3)c(-c3nc(C(=O)NC(C)C)cs3)o2)CC1 [Example 409] cannot be ordered by IC50: at most 1000 nM for the first, at most 1000 nM for the second.

Cc1cccc(C(=O)N2CCN(Cc3nc(-c4ccc(F)cc4)c(-c4nc(C(=O)NC(C)C)cs4)o3)CC2)c1 [Example 358] and Cc1ccc(C(=O)N2CCN(Cc3nc(-c4ccc(F)cc4)c(-c4nc(C(=O)NC(C)C)cs4)o3)CC2)cc1 [Example 360] cannot be ordered by IC50: over 1000 nM for the first, over 1000 nM for the second.

CC(C)NC(=O)c1csc(-c2oc(CN3CCN(C(=O)c4ccc(C=O)cc4)CC3)nc2-c2ccc(F)cc2)n1 [Example 370] and CC(C)NC(=O)c1csc(-c2oc(CN3CCN(C(=O)C4CCc5ccccc54)CC3)nc2-c2ccc(F)cc2)n1 (centres unmarked) [Example 401] cannot be ordered by IC50: over 1000 nM for the first, at most 1000 nM for the second.

CC(C)NC(=O)c1csc(-c2oc(CNC(=O)c3ccc(C(F)(F)F)cc3[N+](=O)[O-])nc2-c2ccc(F)cc2)n1 [Example 319] and CC(C)NC(=O)c1csc(-c2oc(CNC(=O)c3cccnc3)nc2-c2ccc(F)cc2)n1 [Example 112] cannot be ordered by IC50: at most 1000 nM for the first, at most 1000 nM for the second.

CC(C)NC(=O)c1csc(-c2oc(CN3CCN(C(=O)c4cc(C(C)C)cc(C(C)C)c4O)CC3)nc2-c2ccc(F)cc2)n1 [Example 541] gave an IC50 of over 1000 nM.

Same assay, conditions: p38α kinase; Table 1 Biological Activity

CC(C)NC(=O)c1csc(-c2c(-c3ccc(F)cc3)noc2CNc2cc(F)cc(F)c2)n1 [Example 1653] and CC(C)NC(=O)c1csc(-c2oc(CNc3ccc(F)cc3)nc2-c2ccc(F)cc2)n1 [Example 1316] cannot be ordered by IC50: over 1000 nM for the first, over 1000 nM for the second.

Cc1nc(-c2ccc(F)cc2)c(-c2nc(C(=O)NCCOc3ccccc3)cs2)s1 [Example 1778] and CCOc1ccccc1CNC(=O)c1csc(-c2sc(C)nc2-c2ccc(F)cc2)n1 [Example 1801] cannot be ordered by IC50: at most 1000 nM for the first, at most 1000 nM for the second.

CCN(CCO)C(=O)c1csc(-c2sc(C)nc2-c2ccc(F)cc2)n1 [Example 1845] and Cc1nc(-c2ccc(F)cc2)c(-c2nc(C(=O)NCCNC(=O)OC(C)(C)C)cs2)s1 [Example 1808] cannot be ordered by IC50: over 1000 nM for the first, at most 1000 nM for the second.

CC(=O)N1CCC(c2[nH]nc(-c3ccc(F)cc3)c2-c2nc(C(=O)NC(C)C)cs2)CC1 [Example 2167, 2-|5-(1-Acetyl-piperidin-4-yl)-3-(4-fluoro-phenyl)-1H-pyrazol-4-yl|-thiazole-4-carboxylic acid isopropylamide] and Cc1nc(Br)sc1C(=O)N1CCC(c2[nH]nc(-c3ccc(F)cc3)c2-c2nc(C(=O)NC(C)C)cs2)CC1 [Example 1016] cannot be ordered by IC50: at most 1000 nM for the first, over 1000 nM for the second.

Cc1nc(-c2ccc(F)cc2)c(-c2nc(C(=O)N3CCC(Cc4ccccc4)CC3)cs2)s1 [Example 1899] and Cc1nc(-c2ccc(F)cc2)c(-c2nc(C(=O)N[C@@H](C)c3ccccc3)cs2)s1 [Example 1752] cannot be ordered by IC50: over 1000 nM for the first, at most 1000 nM for the second.

CC(C)NC(=O)c1csc(-c2c(-c3ccc(F)cc3)noc2CN(C)CCO)n1 [Example 1515] and C#CCN(Cc1ccc(Cl)cc1Cl)Cc1onc(-c2ccc(F)cc2)c1-c1nc(C(=O)NC(C)C)cs1 [Example 1616] cannot be ordered by IC50: at most 1000 nM for the first, over 1000 nM for the second.

CC(C)NC(=O)c1csc(-c2c(-c3ccc(F)cc3)n[nH]c2C2CCN(C(=O)c3ccc(O)cc3O)CC2)n1 [Example 862] and CC(C)NC(=O)c1csc(-c2c(-c3ccc(F)cc3)n[nH]c2C2CCN(C(=O)Cc3ccc(C(F)(F)F)cc3)CC2)n1 [Example 993] cannot be ordered by IC50: over 1000 nM for the first, over 1000 nM for the second.

CC(C)NC(=O)c1csc(-c2c(-c3ccc(F)cc3)noc2CN2CCN(c3ccc(Cl)cc3)CC2)n1 [Example 1600] and Cc1cccc(CNCc2nc(-c3ccc(F)cc3)c(-c3nc(C(=O)NC(C)C)cs3)o2)c1 [Example 1096] cannot be ordered by IC50: over 1000 nM for the first, over 1000 nM for the second.

CCOC(=O)N1CCC(NC(=O)c2csc(-c3sc(C)nc3-c3ccc(F)cc3)n2)CC1 [Example 1816] and Cc1nc(-c2ccc(F)cc2)c(-c2nc(C(=O)N3CCSC3)cs2)s1 [Example 1846] cannot be ordered by IC50: over 1000 nM for the first, over 1000 nM for the second.

COc1cc(CNC(=O)c2csc(-c3sc(C)nc3-c3ccc(F)cc3)n2)cc(OC)c1 [Example 1813] and Cc1nc(-c2ccc(F)cc2)c(-c2nc(C(=O)NCc3cccnc3)cs2)s1 [Example 1740] cannot be ordered by IC50: at most 1000 nM for the first, at most 1000 nM for the second.

CC(C)N(CCNC(=O)c1csc(-c2c(-c3ccc(F)cc3)n[nH]c2C2CCNCC2)n1)C(C)C [Example 2115] and CC(C)NC(=O)c1coc(-c2c(-c3ccc(F)cc3)noc2C2CCNCC2)n1 [Example 2160, 2-|3-(4-Fluoro-phenyl)-5-piperidin-4-yl-isoxazol-4-yl|-oxazole-4-carboxylic acid isopropylamide] cannot be ordered by IC50: over 1000 nM for the first, at most 1000 nM for the second.

CC(C)NC(=O)c1csc(-c2oc(CNc3cnc4ccccc4c3)nc2-c2ccc(F)cc2)n1 [Example 1346] and Cc1ccccc1NCc1nc(-c2ccc(F)cc2)c(-c2nc(C(=O)NC(C)C)cs2)o1 [Example 1310] cannot be ordered by IC50: over 1000 nM for the first, over 1000 nM for the second.

CC(C)NC(=O)c1csc(-c2oc(CNc3c(C(C)C)cccc3C(C)C)nc2-c2ccc(F)cc2)n1 [Example 1362] and COc1cc(CN(C)Cc2nc(-c3ccc(F)cc3)c(-c3nc(C(=O)NC(C)C)cs3)o2)cc(OC)c1OC [Example 1285] cannot be ordered by IC50: over 1000 nM for the first, over 1000 nM for the second.
